Assay results reported in patent US11912701B2, “Protein kinase inhibitors for promoting liver regeneration or reducing or preventing hepatocyte death” (HEPAREGENIX GMBH, priority 2018, dated 2024).
Where two headings read alike, the source gives them in different places.

Legend:
MKK4 [1] = molecular target: T1, MKK4 (Homo sapiens, UniProt P45985); assay: KINOMEscan competition binding assay, MKK4; settings: residual percent of control binding (PoC) at 100 nM
T1 construct: S84/D399; host or cells: HEK-293
T1 sequence (P45985 84-399): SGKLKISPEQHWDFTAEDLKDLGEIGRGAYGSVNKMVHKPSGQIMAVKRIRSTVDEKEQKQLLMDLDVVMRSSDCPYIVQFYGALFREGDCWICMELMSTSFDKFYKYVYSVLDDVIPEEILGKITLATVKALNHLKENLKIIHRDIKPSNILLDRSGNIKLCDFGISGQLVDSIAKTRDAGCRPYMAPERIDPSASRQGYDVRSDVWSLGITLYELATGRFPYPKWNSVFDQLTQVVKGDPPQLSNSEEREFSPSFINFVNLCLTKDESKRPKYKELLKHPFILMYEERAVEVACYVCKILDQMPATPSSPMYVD
Experimental: (§1) The assay was performed by combining three components: DNA-tagged kinase; immobilized ligand; and a test compound. The ability of the test compound to compete with the immobilized ligand was measured via quantitative PCR of the DNA tag. The technology is described in detail in Fabian, M. A. et al. A small molecule-kinase interaction map for clinical kinase inhibitors. Nat. […] Nat.
(§2) For investigation of the affinity to MKK4, BRaf, MKK7 and JNK1, the kinases were produced in HEK-293 cells and subsequently tagged with DNA for qPCR detection. […] The liganded beads were blocked with excess biotin and washed with blocking buffer (SEABLOCK™ (Pierce), 1% BSA, 0.05% TWEEN®20, 1 mM DTT) to remove unbound ligand and to reduce nonspecific binding. […] All reactions were performed in polystyrene 96-well plates in a final volume of 0.135 mL. […] The kinase concentration in the eluates was measured by qPCR.
(§3) The test compounds were provided as 10 mM stock solutions. The test solutions at indicated final concentrations were prepared at DiscoverX.
Potency of representative examples against the protein kinases MKK4, BRaf, MKK7 and JNK1 expressed as residual percent of control binding (PoC), was determined at a concentration of 100 nM. The determined potencies are categorized as follows: […]

BRaf = molecular target: T2, BRaf (Homo sapiens, UniProt P15056); assay: KINOMEscan competition binding assay, BRaf; settings: ratio PoC (off-target)/PoC (MKK4)
T2 construct: purchased ProQinase GmbH, Freiburg, Germany (33PanQinase Assay Service)
T2 sequence (P15056 whole entry, species assumed): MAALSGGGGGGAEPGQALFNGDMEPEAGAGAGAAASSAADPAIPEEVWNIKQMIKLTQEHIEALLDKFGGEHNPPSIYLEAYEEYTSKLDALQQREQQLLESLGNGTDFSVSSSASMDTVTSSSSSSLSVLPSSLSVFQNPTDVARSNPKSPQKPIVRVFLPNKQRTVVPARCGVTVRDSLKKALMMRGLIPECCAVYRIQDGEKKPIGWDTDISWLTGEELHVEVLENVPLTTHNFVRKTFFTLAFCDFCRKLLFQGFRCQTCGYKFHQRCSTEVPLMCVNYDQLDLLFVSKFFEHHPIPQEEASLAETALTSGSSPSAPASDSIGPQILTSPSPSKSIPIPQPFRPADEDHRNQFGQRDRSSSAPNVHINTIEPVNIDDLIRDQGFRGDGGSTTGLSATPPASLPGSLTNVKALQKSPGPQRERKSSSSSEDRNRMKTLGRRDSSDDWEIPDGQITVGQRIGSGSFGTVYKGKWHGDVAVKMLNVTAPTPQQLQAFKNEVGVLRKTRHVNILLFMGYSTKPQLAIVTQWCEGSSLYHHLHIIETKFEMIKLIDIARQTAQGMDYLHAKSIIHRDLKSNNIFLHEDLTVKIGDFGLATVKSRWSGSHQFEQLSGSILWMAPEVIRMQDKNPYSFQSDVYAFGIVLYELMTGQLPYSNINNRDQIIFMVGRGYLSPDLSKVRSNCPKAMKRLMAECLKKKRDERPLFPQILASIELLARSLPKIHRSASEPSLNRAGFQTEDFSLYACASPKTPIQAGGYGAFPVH
Experimental: as §1, §2, §3
(§4) Potency of representative examples against the protein kinases MKK4, BRaf, MKK7 and JNK1 expressed as residual percent of control binding (PoC), was determined at a concentration of 100 nM. The determined potencies are categorized as follows:
(§5) The binding selectivity of representative examples against the protein kinases BRaf, MKK7 and JNK1, altogether denominated as “off-targets” is determined by the ratios of PoC (off-target)/PoC (MKK4).

MKK4 [2] = molecular target: T3, MKK4 (Homo sapiens, UniProt P45985); assay: 33PanQinase enzyme assay, MKK4; assay type: biochemical; settings: for remaining activity at 0.1 µM: read-out: Potency MKK4 (residual activity, assay at single concentration)
T3 construct: purchased ProQinase GmbH, Freiburg, Germany (33PanQinase Assay Service)
T3 sequence (P45985 1-399): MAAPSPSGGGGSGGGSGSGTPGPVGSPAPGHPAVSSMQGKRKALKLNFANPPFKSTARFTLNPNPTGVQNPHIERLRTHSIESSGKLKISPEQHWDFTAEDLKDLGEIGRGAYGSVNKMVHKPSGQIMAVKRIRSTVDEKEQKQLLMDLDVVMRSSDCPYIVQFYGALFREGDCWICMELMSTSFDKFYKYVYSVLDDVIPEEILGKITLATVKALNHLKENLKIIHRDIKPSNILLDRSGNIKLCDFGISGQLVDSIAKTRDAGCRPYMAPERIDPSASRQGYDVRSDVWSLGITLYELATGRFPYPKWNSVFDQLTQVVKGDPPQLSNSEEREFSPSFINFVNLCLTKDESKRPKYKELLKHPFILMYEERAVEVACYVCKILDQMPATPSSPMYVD
Method in brief: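 Inhibition measured as 33Pi transfer to substrate after a 60-min, 30 °C reaction, acid-stopped and scintillation-counted.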

MKK7 = molecular target: T4, MKK7 (Homo sapiens, UniProt O14733); assay: KINOMEscan competition binding assay, MKK7; design: M1/R419; host or cells: HEK-293; settings: ratio PoC (off-target)/PoC (MKK4)
T4 sequence (O14733 1-419): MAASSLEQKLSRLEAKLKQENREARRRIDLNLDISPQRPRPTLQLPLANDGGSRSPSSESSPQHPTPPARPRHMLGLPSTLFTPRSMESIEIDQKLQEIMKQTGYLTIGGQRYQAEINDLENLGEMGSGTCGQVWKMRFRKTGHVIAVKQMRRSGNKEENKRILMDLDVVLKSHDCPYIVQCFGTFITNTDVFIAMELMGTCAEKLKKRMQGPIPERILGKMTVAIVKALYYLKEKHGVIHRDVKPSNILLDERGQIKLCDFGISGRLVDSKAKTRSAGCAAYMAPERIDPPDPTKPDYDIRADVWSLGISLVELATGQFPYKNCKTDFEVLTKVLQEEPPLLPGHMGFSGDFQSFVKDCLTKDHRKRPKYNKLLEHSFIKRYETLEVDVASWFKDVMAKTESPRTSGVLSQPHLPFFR
Experimental: as §1, §2, §3, §4, §5

JNK1 = JNK1 (Homo sapiens, UniProt P45983); assay: KINOMEscan competition binding assay, JNK1; design: M1/Q384; host or cells: HEK-293; settings: ratio PoC (off-target)/PoC (MKK4)
Chain of JNK1 (P45983 1-384 isoform P45983-2): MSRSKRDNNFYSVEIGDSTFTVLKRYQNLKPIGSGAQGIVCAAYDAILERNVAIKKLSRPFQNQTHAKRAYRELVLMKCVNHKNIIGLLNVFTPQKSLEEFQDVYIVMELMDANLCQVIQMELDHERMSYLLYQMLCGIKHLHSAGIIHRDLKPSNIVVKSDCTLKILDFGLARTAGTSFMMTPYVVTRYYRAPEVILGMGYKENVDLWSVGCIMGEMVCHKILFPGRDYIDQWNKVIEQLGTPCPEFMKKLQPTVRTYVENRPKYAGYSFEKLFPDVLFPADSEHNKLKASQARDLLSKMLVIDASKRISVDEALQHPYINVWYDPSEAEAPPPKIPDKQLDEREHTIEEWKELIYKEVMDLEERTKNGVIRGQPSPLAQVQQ
Experimental: as §1, §2, §3, §4, §5

Row | Compound | MKK4 [% Ctrl @ 100 nM (MKK4 [1]) | selectivity based on % Ctrl @100 nM vs. Braf (BRaf) | remaining activity at 0.1 µM (MKK4 [2]; single concentration 100 nM) [%] | selectivity based on % Ctrl @100 nM vs. MKK7 (MKK7) | selectivity based on % Ctrl @100 nM vs. JNK1 (JNK1) | IC50 (MKK4 [2]; assay 'IC50', read-out: Potency MKK4 (IC50)) [µM] | remaining activity at 0.1 µM (MKK4 [2]) [%]
1 | CCCS(=O)(=O)Nc1ccc(Br)c(C(=O)c2c[nH]c3ncc(-c4ccc(Cl)cc4)cc23)c1Br [Example 2b, N-(2,4-dibromo-3-(5-(4-chlorophenyl)-1H-pyrrolo[2,3-b]pyridine-3-carbonyl)phenyl)propane-1-sulfonamide] | ◯ (30 ≤ PoC) | ◯ (3 ≥ Ratio) | 70 to 90 | ◯ (3 ≥ Ratio) | ◯ (3 ≥ Ratio) |  | 
2 | CCCS(=O)(=O)Nc1c(Cl)ccc(C(=O)c2c[nH]c3ncc(-c4ccc(Cl)cc4)cc23)c1F [Example 2d] | + (3 ≤ PoC < 30) | + (10 ≥ ratio > 3) | 70 to 90 | + (10 ≥ ratio > 3) | + (10 ≥ ratio > 3) |  | 
3 | Cc1cccc(CS(=O)(=O)Nc2ccc(F)c(C(=O)c3c[nH]c4ncc(-c5ccc(Cl)cc5)cc34)c2F)c1 [Example 37, N-(3-(5-(4-chlorophenyl)-1H-pyrrolo[2,3-b]pyridine-3-carbonyl)-2,4-difluoro-phenyl)-1-(m-tolyl)methanesulfonamide] | + (3 ≤ PoC < 30) | + (10 ≥ ratio > 3) |  | + (10 ≥ ratio > 3) | + (10 ≥ ratio > 3) |  | 70 to 90
4 | Cc1ccc(CS(=O)(=O)Nc2ccc(F)c(C(=O)c3c[nH]c4ncc(-c5ccc(Cl)cc5)cc34)c2F)cc1 [Example 38, N-(3-(5-(4-chlorophenyl)-1H-pyrrolo[2,3-b]pyridine-3-carbonyl)-2,4-difluoro-phenyl)-1-(p-tolyl)methanesulfonamide] | + (3 ≤ PoC < 30) | + (10 ≥ ratio > 3) |  | + (10 ≥ ratio > 3) | + (10 ≥ ratio > 3) |  | 70 to 90
5 | O=C(c1c(F)ccc(NS(=O)(=O)Cc2ccccc2)c1F)c1c[nH]c2ncc(-c3ccc(OCC(O)CO)cc3)cc12 (stereo not shown) [Example 40, N-(3-(5-(4-(2,3-dihydroxypropoxy)phenyl)-1H-pyrrolo [2,3-b]pyridine-3-carbonyl)-2,4-difluorophenyl)-1-phenylmethanesulfonamide] | +++ (PoC < 1) | +++ (Ratio > 100) | 70 to 90 | +++ (Ratio > 100) | +++ (Ratio > 100) |  | 
6 | O=C(c1c(F)ccc(NS(=O)(=O)Cc2ccccc2)c1F)c1c[nH]c2ncc(-c3ccc(OCC(O)CO)cc3Cl)cc12 (stereo not shown) [Example 41, N-(3-(5-(2-chloro-4-(2,3-dihydroxypropoxy)phenyl)-1H-pyrrolo[2,3-b]pyridine-3-carbonyl)-2,4-difluorophenyl)-1-phenylmethane-sulfonamide] | ++ (1 ≤ PoC < 3) | ++ (100 ≥ ratio > 10) | 70 to 90 | ++ (100 ≥ ratio > 10) | ++ (100 ≥ ratio > 10) |  | 
7 | CCCS(=O)(=O)Nc1ccc(F)c(C(=O)c2c[nH]c3ncc(-c4ccccn4)cc23)c1F [Example 47] | ++ (1 ≤ PoC < 3) | + (10 ≥ ratio > 3) |  | ++ (100 ≥ ratio > 10) | ++ (100 ≥ ratio > 10) | 1 to 10 | 
8 | CCCS(=O)(=O)Nc1ccc(F)c(C(=O)c2c[nH]c3ncc(-c4ccc5ccsc5c4)cc23)c1F [Example 51] | + (3 ≤ PoC < 30) | ◯ (3 ≥ Ratio) | 70 to 90 | + (10 ≥ ratio > 3) | ◯ (3 ≥ Ratio) |  | 

Continued, in another order:

Row | MKK4 [% Ctrl @ 100 nM (MKK4 [1]) | selectivity based on % Ctrl @100 nM vs. Braf (BRaf) | remaining activity at 0.1 µM (MKK4 [2]; single concentration 100 nM) [%] | selectivity based on % Ctrl @100 nM vs. MKK7 (MKK7) | selectivity based on % Ctrl @100 nM vs. JNK1 (JNK1) | IC50 (MKK4 [2]; assay 'IC50', read-out: Potency MKK4 (IC50)) [µM] | Compound | remaining activity at 0.1 µM (MKK4 [2]) [%]
9 | + (3 ≤ PoC < 30) | ◯ (3 ≥ Ratio) | 70 to 90 | + (10 ≥ ratio > 3) | + (10 ≥ ratio > 3) |  | CCCS(=O)(=O)Nc1ccc(F)c(C(=O)c2c[nH]c3ncc(-c4cccc(Cl)c4)cc23)c1F [Example 32, N-(3-(5-(3-chlorophenyl)-1H-pyrrolo[2,3-b]pyridine-3-carbonyl)-2,4-difluorophenyl)propane-1-sulfonamide] | 
10 | + (3 ≤ PoC < 30) | ++ (100 ≥ ratio > 10) | 70 to 90 | ++ (100 ≥ ratio > 10) | ++ (100 ≥ ratio > 10) |  | CCCS(=O)(=O)Nc1ccc(F)c(C(=O)c2c[nH]c3ncc(-c4ccc(F)cc4F)cc23)c1F [Example 33, N-(3-(5N-(2,4-difluorophenyl)-1H-pyrrolo[2,3-b]pyridine-3-carbonyl)-2,4-difluorophenyl)propane-1-sulfonamide] | 
11 | + (3 ≤ PoC < 30) | ++ (100 ≥ ratio > 10) | 70 to 90 | ++ (100 ≥ ratio > 10) | ++ (100 ≥ ratio > 10) |  | CCCS(=O)(=O)Nc1ccc(F)c(C(=O)c2c[nH]c3ncc(-c4ccccc4F)cc23)c1F [Example 34, N-(2,4-difluoro-3-(5-(2-fluorophenyl)-1H-pyrrolo[2,3-b]pyridine-3-carbonyl)phenyl)propane-1-sulfonamide] | 
12 | + (3 ≤ PoC < 30) | ◯ (3 ≥ Ratio) | 70 to 90 | ++ (100 ≥ ratio > 10) | ++ (100 ≥ ratio > 10) |  | CCCS(=O)(=O)Nc1ccc(F)c(C(=O)c2c[nH]c3ncc(-c4ccc5ccoc5c4)cc23)c1F [Example 52] | 
13 | + (3 ≤ PoC < 30) | + (10 ≥ ratio > 3) |  | ++ (100 ≥ ratio > 10) | ++ (100 ≥ ratio > 10) |  | CCCS(=O)(=O)Nc1ccc(F)c(C(=O)c2c[nH]c3ncc(-c4ccc(OC)cc4OC)cc23)c1F [Example 104, N-(3-(5-(2,4-dimethoxyphenyl)-1H-pyrrolo[2,3-b]pyridine-3-carbonyl)-2,4-difluorophenyl)propane-1-sulfonamide] | 
